In ChEMBL document CHEMBL5465560, “Selectivity Literature for EUbOPEN Chemogenomic Library” (2024):

Assays:
[1] = target: Activin receptor type-2B (Homo sapiens) (UniProt Q13705); test: Selectivity interaction (LanthaScreen Eu Kinase Binding Assay) EUB0001632a ACVR2B; settings: at 10 µM
[2] = target: Histone-lysine N-methyltransferase KMT5B (Homo sapiens) (UniProt Q4FZB7); test: Selectivity interaction (Methyltransferase screen (radiometric assays, panel of 8 PRMTs, 21 protein lysine methyltransferases, 3 DNA methyltransferases, and one RNA methyltransferase)) EUB0000272b SUV420H1
Chain of Histone-lysine N-methyltransferase KMT5B (Homo sapiens) (Q4FZB7 whole entry, looked up): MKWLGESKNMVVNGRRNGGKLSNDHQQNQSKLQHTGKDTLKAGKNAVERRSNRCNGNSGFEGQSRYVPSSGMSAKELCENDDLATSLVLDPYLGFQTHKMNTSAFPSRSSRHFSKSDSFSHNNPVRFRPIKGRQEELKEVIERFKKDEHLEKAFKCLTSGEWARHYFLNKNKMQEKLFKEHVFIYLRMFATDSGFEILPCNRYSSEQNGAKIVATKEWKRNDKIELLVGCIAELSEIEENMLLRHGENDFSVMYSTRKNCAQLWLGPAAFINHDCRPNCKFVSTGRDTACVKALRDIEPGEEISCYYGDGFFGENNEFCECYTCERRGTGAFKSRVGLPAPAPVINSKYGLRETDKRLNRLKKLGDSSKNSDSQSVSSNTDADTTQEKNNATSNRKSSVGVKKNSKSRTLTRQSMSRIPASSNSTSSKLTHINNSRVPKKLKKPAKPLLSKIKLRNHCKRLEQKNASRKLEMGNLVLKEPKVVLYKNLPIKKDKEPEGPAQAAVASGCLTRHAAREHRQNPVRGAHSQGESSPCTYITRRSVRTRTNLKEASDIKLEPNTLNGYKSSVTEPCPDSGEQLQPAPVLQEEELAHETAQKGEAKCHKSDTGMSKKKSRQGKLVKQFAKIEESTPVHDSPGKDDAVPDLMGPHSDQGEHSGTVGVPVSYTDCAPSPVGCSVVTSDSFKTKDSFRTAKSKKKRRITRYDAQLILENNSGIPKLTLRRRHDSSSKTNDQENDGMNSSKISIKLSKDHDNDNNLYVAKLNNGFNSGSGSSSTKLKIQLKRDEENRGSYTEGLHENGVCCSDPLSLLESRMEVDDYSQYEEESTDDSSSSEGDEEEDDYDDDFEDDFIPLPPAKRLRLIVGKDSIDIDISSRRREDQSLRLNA

[3] = target: T1, Cyclin-dependent kinase 11A (Homo sapiens) (UniProt Q9UQ88); test: Selectivity interaction (KinomeScan (DiscoverX)) EUB0000607a CDK11A; settings: at 10 µM
T1 sequence (whole entry): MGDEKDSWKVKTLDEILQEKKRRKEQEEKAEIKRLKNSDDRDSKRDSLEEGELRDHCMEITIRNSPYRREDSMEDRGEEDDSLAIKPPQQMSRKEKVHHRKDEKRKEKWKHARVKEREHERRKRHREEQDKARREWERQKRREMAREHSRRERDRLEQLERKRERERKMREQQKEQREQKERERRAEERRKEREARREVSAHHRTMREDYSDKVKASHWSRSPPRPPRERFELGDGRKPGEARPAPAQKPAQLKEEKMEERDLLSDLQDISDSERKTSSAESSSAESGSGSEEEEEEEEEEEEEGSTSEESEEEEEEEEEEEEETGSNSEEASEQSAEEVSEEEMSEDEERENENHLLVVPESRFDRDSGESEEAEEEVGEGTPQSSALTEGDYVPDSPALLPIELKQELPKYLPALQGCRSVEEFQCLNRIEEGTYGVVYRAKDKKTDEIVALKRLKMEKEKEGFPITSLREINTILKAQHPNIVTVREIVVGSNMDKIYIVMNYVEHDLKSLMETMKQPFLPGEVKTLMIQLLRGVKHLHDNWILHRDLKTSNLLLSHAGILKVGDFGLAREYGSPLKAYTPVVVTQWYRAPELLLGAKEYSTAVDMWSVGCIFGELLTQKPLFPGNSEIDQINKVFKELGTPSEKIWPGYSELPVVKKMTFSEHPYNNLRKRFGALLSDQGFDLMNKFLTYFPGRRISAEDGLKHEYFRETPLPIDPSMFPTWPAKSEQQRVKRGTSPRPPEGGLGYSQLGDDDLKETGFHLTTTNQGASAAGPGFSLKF

[4] = target: Wee1-like protein kinase (Homo sapiens) (UniProt P30291); test: Selectivity interaction (ActivX KiNativ screen (kinase selectivity in THP-1 cell lysates)) EUB0000639a WEE1; assay type: subcellular; settings: lysate
Chain of Wee1-like protein kinase (Homo sapiens) (P30291 whole entry, looked up): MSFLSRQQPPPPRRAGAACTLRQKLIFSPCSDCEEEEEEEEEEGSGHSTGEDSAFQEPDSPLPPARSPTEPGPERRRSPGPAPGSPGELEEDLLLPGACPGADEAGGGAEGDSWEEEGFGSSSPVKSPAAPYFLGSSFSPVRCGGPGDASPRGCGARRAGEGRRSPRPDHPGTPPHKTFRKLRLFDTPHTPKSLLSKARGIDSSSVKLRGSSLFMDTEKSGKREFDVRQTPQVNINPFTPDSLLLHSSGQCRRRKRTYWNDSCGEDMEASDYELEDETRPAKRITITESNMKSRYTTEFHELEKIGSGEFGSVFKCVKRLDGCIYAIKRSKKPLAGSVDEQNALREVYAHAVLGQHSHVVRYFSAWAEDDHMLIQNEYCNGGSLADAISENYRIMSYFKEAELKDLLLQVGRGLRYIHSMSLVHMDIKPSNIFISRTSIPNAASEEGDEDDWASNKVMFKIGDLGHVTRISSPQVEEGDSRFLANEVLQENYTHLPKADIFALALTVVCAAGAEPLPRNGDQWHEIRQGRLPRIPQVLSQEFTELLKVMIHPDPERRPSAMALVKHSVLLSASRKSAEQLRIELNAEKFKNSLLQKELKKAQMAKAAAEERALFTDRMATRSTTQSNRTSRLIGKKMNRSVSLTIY

[5] = target: Death-associated protein kinase 2 (Homo sapiens) (UniProt Q9UIK4); test: Selectivity interaction (ProQinase) EUB0000171b DAPK2
Chain of Death-associated protein kinase 2 (Homo sapiens) (Q9UIK4 whole entry, looked up): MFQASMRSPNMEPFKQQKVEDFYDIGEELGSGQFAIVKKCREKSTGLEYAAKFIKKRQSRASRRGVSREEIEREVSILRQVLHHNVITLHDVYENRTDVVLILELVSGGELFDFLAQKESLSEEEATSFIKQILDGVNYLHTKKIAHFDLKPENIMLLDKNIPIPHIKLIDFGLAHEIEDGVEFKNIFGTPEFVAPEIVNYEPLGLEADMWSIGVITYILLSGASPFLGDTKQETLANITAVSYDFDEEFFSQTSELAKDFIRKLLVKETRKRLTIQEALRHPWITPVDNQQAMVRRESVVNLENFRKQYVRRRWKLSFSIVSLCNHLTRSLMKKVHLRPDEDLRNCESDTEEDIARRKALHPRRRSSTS

[6] = target: Calcium/calmodulin-dependent protein kinase type II subunit beta (Homo sapiens) (UniProt Q13554); test: Selectivity interaction (ProQinase) EUB0000171b CAMK2B
Chain of Calcium/calmodulin-dependent protein kinase type II subunit beta (Homo sapiens) (Q13554 whole entry): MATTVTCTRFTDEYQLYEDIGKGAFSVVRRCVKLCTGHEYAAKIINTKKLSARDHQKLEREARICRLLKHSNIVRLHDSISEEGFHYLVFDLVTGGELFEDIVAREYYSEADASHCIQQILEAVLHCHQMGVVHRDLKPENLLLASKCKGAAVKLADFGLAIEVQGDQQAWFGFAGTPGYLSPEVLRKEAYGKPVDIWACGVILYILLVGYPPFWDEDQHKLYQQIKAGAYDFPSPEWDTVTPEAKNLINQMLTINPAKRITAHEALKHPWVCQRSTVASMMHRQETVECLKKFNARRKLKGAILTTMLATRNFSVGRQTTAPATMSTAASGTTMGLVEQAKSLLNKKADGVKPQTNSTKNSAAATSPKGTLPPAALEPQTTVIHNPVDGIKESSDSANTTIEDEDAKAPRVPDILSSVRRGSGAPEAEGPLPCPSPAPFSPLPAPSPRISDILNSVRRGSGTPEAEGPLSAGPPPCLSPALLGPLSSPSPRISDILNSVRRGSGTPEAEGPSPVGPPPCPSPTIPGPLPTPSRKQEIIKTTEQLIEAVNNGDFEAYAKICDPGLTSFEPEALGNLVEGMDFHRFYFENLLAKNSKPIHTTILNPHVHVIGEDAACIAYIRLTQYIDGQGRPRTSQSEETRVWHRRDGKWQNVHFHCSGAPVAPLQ

[7] = target: Mast/stem cell growth factor receptor Kit (Homo sapiens, UniProt P10721); test: Selectivity interaction (KinomeScan (DiscoverX)) EUB0000695a KIT; settings: at 100 nM
Chain of Mast/stem cell growth factor receptor Kit (P10721 whole entry): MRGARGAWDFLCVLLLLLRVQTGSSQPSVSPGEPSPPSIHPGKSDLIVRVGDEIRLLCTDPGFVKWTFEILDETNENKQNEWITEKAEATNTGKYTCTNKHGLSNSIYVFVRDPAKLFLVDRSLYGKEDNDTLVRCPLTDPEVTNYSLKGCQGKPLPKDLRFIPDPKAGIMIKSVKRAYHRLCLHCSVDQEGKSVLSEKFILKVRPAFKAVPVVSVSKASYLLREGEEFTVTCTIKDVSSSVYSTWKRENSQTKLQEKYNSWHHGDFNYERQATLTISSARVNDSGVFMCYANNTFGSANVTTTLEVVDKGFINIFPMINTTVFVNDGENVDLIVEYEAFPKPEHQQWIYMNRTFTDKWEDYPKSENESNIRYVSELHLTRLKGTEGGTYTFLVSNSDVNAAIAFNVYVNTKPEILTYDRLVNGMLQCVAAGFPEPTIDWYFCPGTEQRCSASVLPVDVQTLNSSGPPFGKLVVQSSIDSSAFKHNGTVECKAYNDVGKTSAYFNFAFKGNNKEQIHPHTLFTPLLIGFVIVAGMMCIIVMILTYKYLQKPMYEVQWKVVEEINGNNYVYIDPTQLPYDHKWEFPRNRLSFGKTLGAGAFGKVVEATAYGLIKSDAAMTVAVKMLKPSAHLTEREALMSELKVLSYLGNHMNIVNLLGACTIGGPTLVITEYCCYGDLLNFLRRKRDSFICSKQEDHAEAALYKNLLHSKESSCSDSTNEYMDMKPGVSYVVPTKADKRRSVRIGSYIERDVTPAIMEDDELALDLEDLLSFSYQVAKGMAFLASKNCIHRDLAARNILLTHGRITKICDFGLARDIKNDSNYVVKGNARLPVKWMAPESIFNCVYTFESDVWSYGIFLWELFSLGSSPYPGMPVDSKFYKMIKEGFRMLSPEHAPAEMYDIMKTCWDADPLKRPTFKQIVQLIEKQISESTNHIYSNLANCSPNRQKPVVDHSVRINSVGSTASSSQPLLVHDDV

[8] = target: T2, Protein kinase C iota type (Homo sapiens) (UniProt P41743); test: Selectivity interaction (KinomeScan (DiscoverX)) EUB0000695a PRKCI; settings: at 100 nM
T2 sequence (whole entry): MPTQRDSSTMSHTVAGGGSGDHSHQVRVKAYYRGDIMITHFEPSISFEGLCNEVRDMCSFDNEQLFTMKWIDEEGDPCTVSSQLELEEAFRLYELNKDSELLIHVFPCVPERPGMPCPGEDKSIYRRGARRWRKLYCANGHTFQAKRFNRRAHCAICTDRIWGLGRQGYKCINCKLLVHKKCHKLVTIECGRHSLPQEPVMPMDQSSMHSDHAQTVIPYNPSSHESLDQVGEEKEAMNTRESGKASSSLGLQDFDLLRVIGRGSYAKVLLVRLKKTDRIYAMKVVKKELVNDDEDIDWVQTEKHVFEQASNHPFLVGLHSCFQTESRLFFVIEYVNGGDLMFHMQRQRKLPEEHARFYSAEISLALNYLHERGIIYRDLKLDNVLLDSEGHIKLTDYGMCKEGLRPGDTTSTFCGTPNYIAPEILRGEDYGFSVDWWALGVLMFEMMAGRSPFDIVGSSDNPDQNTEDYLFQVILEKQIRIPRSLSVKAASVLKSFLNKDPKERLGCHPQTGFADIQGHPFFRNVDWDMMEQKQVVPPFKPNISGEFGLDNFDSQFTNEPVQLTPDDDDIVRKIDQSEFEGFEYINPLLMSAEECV

[9] = target: Serine/threonine-protein kinase 38-like (Homo sapiens) (UniProt Q9Y2H1); test: Selectivity interaction (Kinase panel (DSF assay)) EUB0001559a STK38L
[10] = target: PAS domain-containing serine/threonine-protein kinase (Homo sapiens) (UniProt Q96RG2); test: Selectivity interaction (KinaseProfiler screening (Millipore)) EUB0000601a PASK; settings: at 3 µM
[11] = test system: Receptor-type tyrosine-protein kinase FLT3 (Homo sapiens), P36888 [UNDEFINED MUTATION]; test: Selectivity interaction (KinomeScan (DiscoverX)) EUB0001049a FLT3; settings: at 1 µM
[12] = target: T1, Cyclin-dependent kinase 11A (Homo sapiens); test: Selectivity interaction (Ambit KINOMEscan and KiNATiv profiling in Jurkat cells) EUB0000090b CDK11A; assay type: cell-based; settings: at 1 µM
[13] = target: Dual specificity protein kinase CLK4 (Homo sapiens, UniProt Q9HAZ1); settings: at 10 µM
[14] = target: Ribosomal protein S6 kinase alpha-3 (Homo sapiens, UniProt P51812); settings: at 10 µM
Chain of Ribosomal protein S6 kinase alpha-3 (P51812 whole entry): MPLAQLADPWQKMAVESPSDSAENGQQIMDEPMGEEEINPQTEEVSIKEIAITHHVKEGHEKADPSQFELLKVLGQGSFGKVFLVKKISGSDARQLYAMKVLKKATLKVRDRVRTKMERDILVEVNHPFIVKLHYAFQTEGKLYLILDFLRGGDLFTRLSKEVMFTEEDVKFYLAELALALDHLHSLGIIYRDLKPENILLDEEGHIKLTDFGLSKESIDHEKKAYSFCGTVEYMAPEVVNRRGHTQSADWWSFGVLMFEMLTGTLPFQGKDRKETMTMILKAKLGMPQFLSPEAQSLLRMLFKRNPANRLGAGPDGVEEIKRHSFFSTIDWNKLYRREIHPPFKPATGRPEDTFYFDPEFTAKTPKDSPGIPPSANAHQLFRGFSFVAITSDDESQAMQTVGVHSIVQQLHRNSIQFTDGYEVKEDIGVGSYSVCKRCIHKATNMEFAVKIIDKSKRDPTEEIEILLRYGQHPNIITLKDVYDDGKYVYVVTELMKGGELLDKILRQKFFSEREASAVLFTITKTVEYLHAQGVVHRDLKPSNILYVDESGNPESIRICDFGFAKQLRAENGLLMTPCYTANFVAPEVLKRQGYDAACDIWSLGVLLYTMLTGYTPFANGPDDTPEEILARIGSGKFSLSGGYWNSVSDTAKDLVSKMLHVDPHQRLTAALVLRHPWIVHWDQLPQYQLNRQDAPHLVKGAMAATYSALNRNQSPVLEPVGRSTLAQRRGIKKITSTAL

[15] = target: Phosphatidylinositol 4-phosphate 5-kinase type-1 gamma (Homo sapiens) (UniProt O60331); test: Selectivity interaction (KinomeScan (DiscoverX)) EUB0000618a PIP5K1C; settings: at 10 µM
Chain of Phosphatidylinositol 4-phosphate 5-kinase type-1 gamma (Homo sapiens) (O60331 whole entry): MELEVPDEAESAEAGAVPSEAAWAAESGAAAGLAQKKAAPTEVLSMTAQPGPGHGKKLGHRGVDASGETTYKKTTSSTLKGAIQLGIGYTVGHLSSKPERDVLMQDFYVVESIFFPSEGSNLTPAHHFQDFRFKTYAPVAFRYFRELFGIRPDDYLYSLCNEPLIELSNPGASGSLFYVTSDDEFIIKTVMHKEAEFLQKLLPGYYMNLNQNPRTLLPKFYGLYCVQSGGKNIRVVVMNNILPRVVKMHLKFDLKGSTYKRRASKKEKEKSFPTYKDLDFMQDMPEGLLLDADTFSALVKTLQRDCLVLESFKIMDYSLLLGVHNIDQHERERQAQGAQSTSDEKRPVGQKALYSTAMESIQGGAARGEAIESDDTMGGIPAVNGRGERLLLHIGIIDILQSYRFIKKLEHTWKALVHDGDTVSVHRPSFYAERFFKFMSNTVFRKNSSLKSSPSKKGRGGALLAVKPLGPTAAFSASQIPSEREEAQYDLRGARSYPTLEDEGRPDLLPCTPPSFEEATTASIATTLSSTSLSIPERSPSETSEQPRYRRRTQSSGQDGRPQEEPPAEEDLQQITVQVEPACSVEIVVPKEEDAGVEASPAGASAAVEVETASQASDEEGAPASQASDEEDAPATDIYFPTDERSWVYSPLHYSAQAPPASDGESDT

SMILES: Cn1cc(-n2cnc3c(NCc4nc5cc(Cl)c(Cl)cc5[nH]4)nc(N4CCOCC4)nc32)cn1
- % of inhibition [1]: -21.2%

SMILES: Cc1cc(C)cc([C@H]2c3cc(C)ccc3NC(=O)CN2C(=O)c2ccc(Br)s2)c1
- % of activity ([2]; at 1 µM): 103%
- % of activity ([2]; at 10 µM): 103%

SMILES: CNC(=O)Nc1ccc(-c2nc(N3CC4CCC(C3)O4)c3cnn(C4CCC5(CC4)OCCO5)c3n2)cc1
- % of control [3]: 100%

SMILES: CC[C@@H]1[C@H](F)C(=O)N[C@@H]1COc1nccc2cc(C(N)=O)c(OC)cc12 [ZIMLOVISERTIB]
- % of inhibition ([4]; at 0.01 µM): 25.6%
- % of inhibition ([4]; at 0.04 µM): -1.5%
- % of inhibition ([4]; at 0.2 µM): 3.2%
- % of inhibition ([4]; at 1 µM): -5.7%
- % of inhibition ([4]; at 5 µM): 35.6%

SMILES: C=CC(=O)Nc1cccc(C(=O)Nc2ccc(Nc3cc(-c4[nH]c(SC)nc4C)ccn3)cc2)c1
- % of control ([5]; at 1 µM): 92%
- % of control ([5]; at 5 µM): 78%
- % of control ([6]; at 1 µM): 97%
- % of control ([6]; at 5 µM): 79%

SMILES: Cc1cc(F)c(C(=O)Nc2cccc(-c3nncn3C(C)C)n2)cc1-n1cnc(C2CC2)c1
- % of control [7]: 100%
- % of control [8]: 95%

SMILES: CN(C(=O)c1cnn2cccnc12)c1cc2c(cc1N1CCOCC1)C(=O)N(C[C@@H](F)C(C)(C)O)C2
- dTM [9]: 0 K

SMILES: CCc1cc(Nc2nccc(-c3c(-c4ccc(OC)c(C(=O)Nc5c(F)cccc5F)c4)nc4ccccn34)n2)c(OC)cc1N1CCC(N2CCN(S(C)(=O)=O)CC2)CC1
- % of inhibition [10]: 65%

SMILES: COc1cc(Nc2nc(C)cc(-c3cnn4nc(OC)ccc34)n2)cc(C(F)(F)F)c1
- % of control [11]: 96%

SMILES: CN(C)C/C=C/C(=O)Nc1ccc(C(=O)N2CCCC(Nc3ncc(Cl)c(-c4c[nH]c5ccccc45)n3)C2)cc1 (configuration not stated)
- % of control [12]: 100%

SMILES: Cc1cc([C@@H](C)Nc2ccccc2C(=O)O)c2nc(N3CCOCC3)cc(=O)n2c1 [AZD-6482]
- % of control [13]: 68%
- % of control [14]: 91%

SMILES: O[C@H]1CC[C@H](Nc2ncc3nc(Nc4c(F)cc(F)cc4F)n([C@H]4CCOC4)c3n2)CC1
- % of control [15]: 76%
